Test results from patent publication US10562920B2, “Ln(III) and Ga(III) metallacrown complexes” (The Regents of the University of Michigan, priority 2015, dated 2020).
Several values for one entry are separate records, joined by “and”; a condition that tells them apart may be missing. Identical values can stand only once. Marks after values point to notes of the source that are not given here.

Experiments:
Assay type in all cases: physicochemical
[1] = Quantum yields by absolute method using an integration sphere; conditions: for QLn^L/%: Ga6Ln(shi)9, solid state
Experimental: (§1) Luminescence data were collected on samples placed into 2.4 mm i.d. quartz capillaries or quartz Suprasil cells. Emission and excitation spectra were measured on a Horiba-Jobin-YvonFluorolog 3 spectrofluorimeter equipped with either a visible photomultiplier tube (PMT) (220-800 nm, R928P; Hamamatsu), a NIR solid-state InGaAs detector cooled to 77 K (800-1600 nm, DSS-IGA020L; Jobin-Yvon), or NIR PMTs (950-1450 nm, H10330-45; 950-1650 nm, H10330-75; Hamamatsu). All spectra were corrected for instrumental functions. Luminescence lifetimes were determined under excitation at 355 nm provided by a Nd:YAG laser (YG 980; Quantel), while the signal was detected in the NIR by the aforementioned PMT (H10330-75). The output signal from the detectors was then fed to a 500 MHz bandpass digital oscilloscope (TDS 754C; Tektronix) and then transferred to a PC for treatment with Origin 8®. Luminescence lifetimes are averages of at least three independent measurements. Quantum yields were determined with a Fluorolog 3 spectrofluorimeter according to an absolute method using an integration sphere (GMP SA). Each sample was measured several times under slightly different experimental conditions. Estimated experimental error for quantum yields determination is 10%.

[2] = Luminescence lifetimes under excitation at 355 nm; conditions: for τobs/μs: Ga8Ln2(shi)8, solid state
Experimental: as §1

[3] = Ligand triplet state from phosphorescence of Gd3+ analogues; conditions: for ΔE (cm^−1), energy gap between ligand triplet state and Ln3+ emissive state: T1 = 22 170 cm^−1, Ga4Ln(shi)4; for ligand triplet state (T1, 0-0 component of phosphorescence), wavelength / ligand triplet state energy (T1, 0-0 component of phosphorescence): solid state, 77 K, excitation 350 nm
Experimental: as §1
Phosphorescence can be observed by recording the signal emitted from Ga4Gd(shi)4 in time-resolved mode in the solid state at 77K upon excitation at 350 nm and using a 200 μS delay after the excitation flash (FIG. 9). The 0-0 component of this band represents the energy level of the ligand's triplet state (T1=22,170 cm^−1, 451 nm) which is attributed to the energy level responsible for the main contribution of the transfer to the Ln^3+. The T1 level is sufficiently high in energy to populate the excited states of a wide range of visible and NIR-emitting Ln^3+.
Since the Ga8Ln2(shi)8 dimer compounds were insoluble in all solvents, the solid state photophysical data alone were collected. As with the Ga4Gd(shi)4 compound, the Ga8Gd2(shi)8 complex may be used to examine the ligand-based photophysical properties. […] The solid state ligand phosphorescence was obtained at 77 K using an excitation wavelength of 350 nm and a 100 μs delay (FIG. 11). The profile of the phosphorescence is similar to that of Ga4Gd(shi)4 (FIG. 9), which was expected, since both compounds are formed by the same framework ligand, H3shi. The 0-0 transition was determined to be located at 455 nm, or 21 978 cm^−1. This triplet state energy is slightly lower than that of the Ga4Gd(shi)4 compound (22 170 cm^−1), but still is sufficiently high in energy to sensitize visible (Dy^3+, Tb^3+, Sm^3+) and/or NIR emitting (Dy^3+, Sm^3+, Ho^3+, Yb^3+, Pr^3+, Nd^3+, Er^3+) lanthanides.

[4] = Hydration number q from lifetimes in deuterated and protic solvents; conditions: from kCH3OH − kCD3OD, equations of footnotes b, c, e, g
Excerpt: One parameter that can be obtained from the recording of luminescence lifetimes is the hydration number q. […] This non-zero q value is particularly detrimental for the intensity of the luminescence (and to the corresponding quantum yield values) of NIR-emitting lanthanides since the overtones of high-energy vibrations of the solvent molecules create a route for non-radiative deactivation.

[5] = Emission spectra under ligand excitation at 350 nm; conditions: Ga8Ln2(shi)8, solid state
Experimental: as §1
Using an excitation wavelength of 350 nm, both visible and NIR emission arising from f-f transitions of different lanthanide ions can be observed (FIG. 13). In general, quantum yields are lower for Ga8Ln2(shi)8 MCs compared to […] (Table 3) except for Ho^3+ analogues which quantum yield is increased by 1.65 times reaching 3.3(1)·10^−3%.

[6] = Ga8Ln2(shi)8, solid state, excitation 350 nm

[DyGa4(shi)4(H2shi)2(C5H5N)4(NO3)].(C5H5N)2 [Ga4Dyshi6]
QLn^L/% VIS (only Dy) ([1]; solid state Ga4Ln(shi)6, only Dy): 0.222(6) (only Dy) % | QLn^L/% VIS (total) ([1]; solid state Ga4Ln(shi)6, total): 0.308(8) (total) % | τ/μs ([2]; solid state Ga4Ln(shi)6): 3.36(6) μs

[ErGa4(shi)4(C6H5CO2)4(C5H5N)(CH3OH)].C5H6N.0.5C5H5N [Ga4Er(shi)4]
QLn^L (%) (NIR) ([1]; Ga4Ln(shi)4, CD3OD): 4.5(3)·10^−2% | QLn^L (%) (NIR) ([1]; Ga4Ln(shi)4, Solid): 4.4(1)·10^−2% | τobs (μs) ([2]; Ga4Ln(shi)4, CD3OD): 1.74(1) μs | τobs (μs) ([2]; Ga4Ln(shi)4, Solid): 6.75(3) μs | ΔE (cm^−1), energy gap between ligand triplet state and Ln3+ emissive state [3]: 15 470 cm^−1

[ErGa4(shi)4(H2shi)2(C5H5N)5].(NO3).(C5H5N) [Ga4Ershi6]
QLn^L/% NIR ([1]; solid state Ga4Ln(shi)6): 1.55(3) · 10^−3% | τ/μs ([2]; solid state Ga4Ln(shi)6): 0.220(3) μs

[ErGa6(shi)7(Hshi)(H2shi)(C6H16N)3(C5H5N)2].6H2O [Ga6Er(shi)9]
QLn^L/% [1]: 7.1(2) · 10^−3% | τ/μs ([2]; Ga6Ln(shi)9, solid state): 0.905(8) μs

[Ga4Dy(shi)4(C6H5CO2)4(C5H5N)(CH3OH)].C5H6N.C5H5N.CH3OH
QLn^L (%) (NIR) ([1]; Ga4Ln(shi)4, CD3OD): 6.0(1) · 10^−2% | QLn^L (%) (visible) ([1]; Ga4Ln(shi)4, CD3OD): 0.78(1) % | QLn^L (%) (NIR) ([1]; Ga4Ln(shi)4, CH3OH): 2.4(1) · 10^−2% | QLn^L (%) (visible) ([1]; Ga4Ln(shi)4, CH3OH): 0.38(1) % | QLn^L (%) (NIR) ([1]; Ga4Ln(shi)4, Solid): 0.21(1) % | QLn^L (%) (visible) ([1]; Ga4Ln(shi)4, Solid): 2.10(1) % | τobs (μs) ([2]; Ga4Ln(shi)4, CD3OD): 25.5(7) μs | τobs (μs) ([2]; Ga4Ln(shi)4, CH3OH): 12.0(1) μs | τobs (μs) ([2]; Ga4Ln(shi)4, Solid): 21.2(2) μs | q (hydration number) [4]: 0.7^e | ΔE (cm^−1), energy gap between ligand triplet state and Ln3+ emissive state [3]: 1 070 cm^−1

[Ga4Eu(shi)4(C6H5CO2)4(C5H5N)(CH3OH)].C5H6N.C5H5N.CH3OH
QLn^L (%) (visible) ([1]; Ga4Ln(shi)4, Solid): 1.59(4) · 10^−2% | ΔE (cm^−1), energy gap between ligand triplet state and Ln3+ emissive state [3]: 4 910 cm^−1

[Ga4Gd(shi)4(C6H5CO2)4(C5H5N)(CH3OH)].C5H6N.C5H5N.CH3OH
ligand triplet state (T1, 0-0 component of phosphorescence), wavelength [3]: 451 nm | ligand triplet state energy (T1, 0-0 component of phosphorescence) [3]: 22,170 cm^−1 and 22 170 cm^−1

[Ga4Sm(shi)4(C6H5CO2)4(C5H5N)(CH3OH)].C5H6N.C5H5N.CH3OH
QLn^L (%) (NIR) ([1]; Ga4Ln(shi)4, CD3OD): 0.298(1) % | QLn^L (%) (visible) ([1]; Ga4Ln(shi)4, CD3OD): 2.33(5) % | QLn^L (%) (NIR) ([1]; Ga4Ln(shi)4, CH3OH): 2.65(6) · 10^−2% | QLn^L (%) (visible) ([1]; Ga4Ln(shi)4, CH3OH): 0.252(1) % | QLn^L (%) (NIR) ([1]; Ga4Ln(shi)4, Solid): 0.450(4) % | QLn^L (%) (visible) ([1]; Ga4Ln(shi)4, Solid): 2.46(8) % | τobs (μs) ([2]; Ga4Ln(shi)4, CD3OD): 255(1) μs | τobs (μs) ([2]; Ga4Ln(shi)4, CH3OH): 27.6(1) μs | τobs (μs) ([2]; Ga4Ln(shi)4, Solid): 148(1) μs | q (hydration number) [4]: 0.8^b | ΔE (cm^−1), energy gap between ligand triplet state and Ln3+ emissive state [3]: 4 270 cm^−1

[Ga8Dy2(shi)8(isophthalate)4(DMF)6].8DMF.2H2O
QLn^L (%) (NIR) [1, 6]: 7.5(1) · 10^−2% | QLn^L (%) (visible) [1, 6]: 0.85(1) % | λem/nm [5]: 575 nm | τobs/μs [2]: 15.0(1) μs

[Ga8Er2(shi)8(isophthalate)4(DMF)6].8DMF.2H2O
QLn^L (%) (NIR) [1, 6]: 5.7(1) · 10^−3% | λem/nm [5]: 1525 nm | τobs/μs [2]: 5.23(2) μs

[Ga8Gd2(shi)8(isophthalate)4(DMF)6].8DMF.H2O
ligand triplet state (T1, 0-0 component of phosphorescence), wavelength [3]: 455 nm | ligand triplet state energy (T1, 0-0 component of phosphorescence) [3]: 21 978 cm^−1

[Ga8Ho2(shi)8(isophthalate)4(DMF)6].8DMF.2H2O
QLn^L (%) (NIR) [1, 6]: 3.3(1) · 10^−3% | λem/nm [5]: 978 nm | τobs/μs [2]: 0.032(1) μs

[Ga8Nd2(shi)8(isophthalate)4(DMF)6].8DMF.H2O
QLn^L (%) (NIR) [1, 6]: 0.99(2) % | λem/nm [5]: 1064 nm | τobs/μs [2]: 2.46(1) μs

[Ga8Pr2(shi)8(isophthalate)4(DMF)6].8DMF.2H2O
QLn^L (%) (NIR) [1, 6]: 9.3(1) · 10^−3% | λem/nm [5]: 1020 nm | τobs/μs [2]: 0.901(6) μs

[Ga8Sm2(shi)8(isophthalate)4(DMF)6].8DMF.2H2O
QLn^L (%) (NIR) [1, 6]: 0.269(3) % | QLn^L (%) (visible) [1, 6]: 2.09(5) % | λem/nm [5]: 597 nm | τobs/μs [2]: 117(1) μs

[Ga8Tb2(shi)8(isophthalate)4(DMF)6].8DMF.H2O
QLn^L (%) (visible) [1, 6]: 31.2(2) % | λem/nm [5]: 545 nm | τobs/μs [2]: 1410(1) μs

[Ga8Yb2(shi)8(isophthalate)4(DMF)6].8DMF.3H2O
QLn^L (%) (NIR) [1, 6]: 2.43(6) % | λem/nm [5]: 980 nm | τobs/μs [2]: 30.5(1) μs

[HoGa4(shi)4(C6H5CO2)4(C5H5N)(CH3OH)].C5H6N.C5H5N.CH3OH [Ga4Ho(shi)4]
QLn^L (%) (NIR) ([1]; Ga4Ln(shi)4, Solid): 2.0(2)·10^−3% | τobs (μs) ([2]; Ga4Ln(shi)4, Solid): 0.029(1) μs | ΔE (cm^−1), energy gap between ligand triplet state and Ln3+ emissive state [3]: 6 670 cm^−1

[HoGa4(shi)4(H2shi)2(C5H5N)4(NO3)].(C5H5N)2 [Ga4Hoshi6]
τ/μs ([2]; solid state Ga4Ln(shi)6): 0.032(1) μs

[HoGa6(shi)7(Hshi)(H2shi)(C6H16N)3(C5H5N)2].8H2O [Ga6Ho(shi)9]
QLn^L/% [1]: 1.1(2) · 10^−3% | τ/μs ([2]; Ga6Ln(shi)9, solid state): 0.037(1) μs

[NdGa6(shi)7(Hshi)(H2shi)(C6H16N)3(C5H5N)2].7H2O [Ga6Nd(shi)9]
QLn^L/% [1]: 0.171(5) % | τ/μs ([2]; Ga6Ln(shi)9, solid state): 0.71(1) μs

[PrGa6(shi)7(Hshi)(H2shi)(C6H16N)3(C5H5N)2].4H2O [Ga6Pr(shi)9]
QLn^L/% [1]: 3.7(2) · 10^−3% | τ/μs ([2]; Ga6Ln(shi)9, solid state): 0.063(1) μs

[SmGa6(shi)7(Hshi)(H2shi)(C6H16N)3(C5H5N)2].6H2O [Ga6Sm(shi)9]
QLn^L/% [1]: 1.64(9) % | τ/μs ([2]; Ga6Ln(shi)9, solid state): 70(1) μs

[TbGa4(shi)4(H2shi)2(C5H5N)4(NO3)].(C5H5N)2 [Ga4Tbshi6]
QLn^L/% VIS ([1]; solid state Ga4Ln(shi)6): 11.3(5) % | τ/μs ([2]; solid state Ga4Ln(shi)6): 509(7) μs

[TbGa6(shi)7(Hshi)(H2shi)(C6H16N)3(C5H5N)2] [Ga6Tb(shi)9]
QLn^L/% [1]: 0.189(3) %

[TmGa4(shi)4(C6H5CO2)4(C5H5N)(CH3OH)].C5H6N.0.5C5H5N [Ga4Tm(shi)4]
QLn^L (%) (visible) ([1]; Ga4Ln(shi)4, Solid): 0.02(1)^f % | τobs (μs) ([2]; Ga4Ln(shi)4, Solid): 1.47(1) μs | ΔE (cm^−1), energy gap between ligand triplet state and Ln3+ emissive state [3]: 820 cm⁻¹

[YbGa4(shi)4(H2shi)2(C5H5N)5].(NO3).(C5H5N)2 [Ga4Ybshi6]
QLn^L/% NIR ([1]; solid state Ga4Ln(shi)6): 0.216(6) % | τ/μs ([2]; solid state Ga4Ln(shi)6): 2.99(2) μs

[YbGa6(shi)7(Hshi)(H2shi)(C6H16N)3(C5H5N)2].8H2O [Ga6Yb(shi)9]
QLn^L/% [1]: 0.65(3) % | τ/μs ([2]; Ga6Ln(shi)9, solid state): 7.26(2) μs
